{
  "source": "paper PMC8861638",
  "about": "“Human iPSC-derived renal organoids engineered to report oxidative stress can predict drug-induced toxicity” (iScience, 2022)",
  "key": {"[1]": {"test_system": "HO1-mCherry-hiPSC-derived flat renal organoids", "experiment": "Blind-coded screen, mCherry fluorescence of HMOX1 reporter in flat organoids", "method": "(§1) H O 1-mCherry-hiPSC renal organoids (both flat and 3D) were incubated in a 4-fold dilution series of each compound for either 24 h or 72 h. Data on reporter expression are shown graphically in Figure 5.\n(§2) A four-fold dilution series of each blinded compound (lyophilized, obtained from the Gothenburg authors) was prepared and HO1-mCherry-hiPSC-derived renal organoids (flat and 3D) were incubated in these dilutions for either 24h or 72h (Figure 5). A no-treatment control was included for each compound, time-point and organoid type (flat or 3D). 24h flat organoids were cultured in 4 x wells of a 24-well plate; 72h flat organoids in wells of a 96-well plate and 3D organoids on transwell inserts.\n(§3) Fluorescence measurements were taken after 24h or 72h. Each live organoid was imaged either 5 times with 4 replicates (flat organoids, 24h), once with 10 replicates (flat organoids, 72h), once with 3 replicates (3D organoids, 24h) or 3 times with 3 replicates (3D organoids, 72h). Organoids were imaged using a Zeiss Axiovert microscope with Axiovision software. All images used for fluorescence intensity analysis were taken with identical exposures and settings. All images were analysed using ImageJ. The total fluorescence intensity of the image was multiplied by the total area with a signal between 600 (lower threshold) and 4096 (higher threshold), where 0 is completely black and 4096 is completely white. Thus, only signal above a certain threshold is measured in order to discount very dark areas with no cells.\n(§4) In graphs, a single star indicates a p value of the null hypothesis being true of less than 0.05, two stars a p value of less than 0.01 and 3 stars a p value of less than 0.001. Calculation of the overall performance of the assay (in the Discussion section) was performed by calculating the Wilson Score Interval method ([Newcombe, 1998])."}, "[2]": {"test_system": "HO1-mCherry-hiPSC-derived 3D renal organoids", "experiment": "Blind-coded screen, mCherry fluorescence of HMOX1 reporter in 3D organoids", "method": "as §1, §2, §3, §4"}, "[3]": {"test_system": "hiPSC-derived renal organoids", "type": "cell-based, human", "excerpt": "We also stained drug-treated organoids for HMOX1 together with LTL and COL IV (Figure S3A), or JAG1 (Figure S3B), to test whether the response is localized to a specific cell type in the organoid. […] The general increase in HMOX1 expression in response to the toxic drugs, rather than specific response in proximal tubular cells, the primary site of toxicity of both drugs, could be due to the availability of the drug to all cell types of the organoid through the media in contrast to what happens in vivo where these drugs filter through the glomeruli then specifically accumulate inside the proximal tubular cells, through apical uptake pathways, where most of their toxic effect is seen.\nThe culture medium was aspirated, cells washed once in PBS, then fixed in 4% PFA in PBS for 15 minutes at room temperature, followed by three PBS washes of 3 min each. Cells were permeabilised and blocked for 1 hour (2% BSA, 0.3% Triton x100 in PBS). Cells were washed in PBS and incubated with primary antibodies overnight at 4 °C. Cells were washed in PBS (3x, 15 min) and incubated with secondary antibodies for 2 hrs at room temperature. Cells were washed in PBS (3x, 15 minutes) before imaging in PBS in the wells. Images were taken using a Zeiss Axiovert fluorescence microscope. […]"}, "[4]": {"test_system": "flat and 3D HO1-mCherry-hiPSC-derived organoids", "experiment": "HMOX1 qPCR in the blind-coded screen, flat and 3D organoids, 24h", "type": "cell-based, human", "conditions": "highest concentration 384µM", "method": "A one-way ANOVA on repeated measures was performed. […]\nmCherry insertion without hydrogen peroxide treatment. B) Single mCherry-positive cells were sorted into each well of 96-well plates as shown in the right panel to isolate clonal populations. Negative (wild type) cells are shown in the left panel. C) Diagram of the primers designed for verifying cassette insertion into the hiPSC genome. D) PCR products using primer pair 1 and 4 shown in C) - endogenous […]\nFigure S5. HMOX1 expression in flat and 3D HO1-mCherry-hiPSC-derived flat and 3D organoids by qPCR fold-change analysis, Related to Figure 6.\nHMOX1 expression fold-change compared to vehicle control in flat (white) and 3D […]"}, "[5]": {"test_system": "hiPSC-derived flat renal organoids", "experiment": "RNA-seq of wild-type hiPSC-derived flat renal organoids treated with gentamicin for 24 h", "type": "cell-based, human", "excerpt": "Although some transporters were more strongly expressed in the 3D organoids, the presence of Megalin and Cubulin in the flat organoids, combined with their increased suitability for high-throughput analyses, led us to adopt this form of organoid to identify a potential reporter for toxic insults in renal organoids. hiPSCs were differentiated into flat renal organoids, and their renal identity was verified by confirming expression of common renal markers (as described above and in the Methods section). We treated these flat renal organoids for 24 h with the known nephrotoxicant, gentamicin ([Regec et al., 1986], [1989]; [El Mouedden et al., 2000]), at 1 or 4 mg/mL, leaving some as vehicle-only controls (3 separate organoids per condition). Gentamicin was chosen based on the presence of Megalin and Cubulin in these organoids because they are the main endocytic receptors involved in gentamicin uptake into proximal tubule cells ([Schmitz et al., 2002]) and would be expected to be necessary for a realistic toxic response. The transcriptomes of renal organoids in these three conditions were compared using RNA-seq analyses.\nIn contrast, treatment with 4 mg/mL gentamicin caused the expression of 2,221 genes to increase and that of 1770 to decrease. Among the transcripts showing increased expression was KIM-1 (log fold-change: 1.67; FDR-corrected p = 0.03), a biomarker commonly associated with renal tubular necrosis (Table S1).\nRNA-seq, and trimming, filtering and normalization of raw data, was performed by Edinburgh Genomics. 1 μg of total RNA/sample was used for sequencing library preparation using an Illumina TruSeq stranded mRNA kit. Sequencing was performed using a Novaseq S1 50 Paired-end run to produce 50–64 million read-pairs per sample. Reads were trimmed using Cutadapt and were aligned to the Homo sapiens reference genome (GRCh38; from Ensembl) using STAR. […] Reads were assigned to features of type ‘exon’ in the input annotation grouped by gene_id in the reference genome using Feature Counts. […] Reads were normalised using the weighted trimmed mean of M-values method. […]"}, "[6]": {"test_system": "HO1-mCherry-hiPSC-derived flat renal organoids", "experiment": "Verification of reporter response in flat organoids to known nephrotoxicants (fluorescence, qPCR)", "type": "cell-based, human", "conditions": "increasing amounts of compound", "experimental": "Total RNA was isolated from organoids using the Qiagen RNeasy mini kit. Flat organoids were dissociated and processed as per the kit protocol. 3D organoids were lysed using the lysis buffer provided in the kit and then passed through a needle to fully dissociate before continuing with the kit protocol. RNA was stored at −80 °C until use. cDNA for qPCR was prepared using 2μg RNA and cDNA for RT-PCR was prepared using 1μg of RNA. All cDNA was quality-controlled by PCR using intron-spanning primers for β-actin on cDNA, prepared with or without reverse transcriptase (primers in Table S4). RT-PCRs for OAT1 (SLC22A6) and OCT2 (SLC22A2) were carried out in multiplex reactions with primers for β-actin as loading controls (primers in Table S4). qPCRs on undifferentiated and flat organoids for HMOX1 with HPRT1 as internal control were performed using TaqMan reagents as per published protocols (Applied Biosystems, assay nos. in Table S4). For qPCRs in the blind-coded screen, quality-controlled cDNA was provided by the Edinburgh authors to the Gothenburg authors. […] The reaction was prepared via Beckman NX and measured on Applied Biosystems QuantStudio 7 Real-Time PCR System.Technical triplicates served to calculate CT mean for each gene. The ΔCT between the target gene and the mean CT of the two reference genes was calculated for each biological replicate. […]"}, "[7]": {"test_system": "undifferentiated HO1-mCherry-hiPSCs", "conditions": "0, 125, or 250 μM for 24 h", "experimental": "RNA was stored at −80 °C until use. cDNA for qPCR was prepared using 2μg RNA and cDNA for RT-PCR was prepared using 1μg of RNA. […] 12 ng of cDNA was utilized for each qPCR reaction. TaqMan gene expression assays (Applied Biosystems, TaqMan Gene Expression FAST Master Mix) were performed on HMOX1 and house-keeping genes HPRT and RPLP0. The reaction was prepared via Beckman NX and measured on Applied Biosystems QuantStudio 7 Real-Time PCR System.Technical triplicates served to calculate CT mean for each gene. The ΔCT between the target gene and the mean CT of the two reference genes was calculated for each biological replicate. The mean ΔCT of biological triplicates was normalized to untreated sample resulting in 2^ΔΔCT. […] A one-way ANOVA on repeated measures was performed. Significant fold-change was established by Dunnett's multiple comparisons test."}, "[8]": {"conditions": "flat organoids, 24 h and 72 h, 4-fold dilution series"}, "[9]": {"conditions": "3D organoids, 24 h and 72 h, 4-fold dilution series"}},
  "note": "Values joined by “and” are separate entries in the source; they are usually repeats but may differ in a detail not shown here. Identical values can stand only once. Like-named read-outs stand apart in the source and are kept apart here.",
  "data": [
    {"smiles": "Nc1ccn(C[C@@H](CO)OCP(=O)(O)O)c(=O)n1", "note": "[Cidofovir]", "values": [
      {"measurement": "Prediction of toxicity by increase in fluorescence intensity", "setting": "[1]; Flat 24h", "value": "N"},
      {"measurement": "Prediction of toxicity by increase in fluorescence intensity", "setting": "[1]; Flat 72h", "value": "Y"},
      {"measurement": "Reporter fluorescence response compared to vehicle control", "setting": "[1]; flat organoids, 24 h", "value": "no significant response"},
      {"measurement": "Reporter fluorescence response compared to vehicle control", "setting": "[1]; flat organoids, 72 h", "value": "elicited a response at even the lowest concentration tested"},
      {"measurement": "Prediction of toxicity by increase in fluorescence intensity", "setting": "[2]; 3D 24h", "value": "Y"},
      {"measurement": "Prediction of toxicity by increase in fluorescence intensity", "setting": "[2]; 3D 72h", "value": "N"},
      {"measurement": "Reporter fluorescence response compared to vehicle control", "setting": "[2]; 3D organoids, 24 h", "value": "showed a response after 24 h treatment"},
      {"measurement": "Reporter fluorescence response compared to vehicle control", "setting": "[2]; 3D organoids, 72 h", "value": "not after 72 h"}
    ]},
    {"smiles": "N.N.[Cl][Pt][Cl]", "note": "[Cisplatin]", "values": [
      {"measurement": "HMOX1 expression by immunostaining", "setting": "[3]", "value": "HMOX1 expression increased"},
      {"measurement": "Cell death (no cDNA obtained)", "setting": "[4]", "value": "massive cell death"},
      {"measurement": "Reporter fluorescence response compared to vehicle control", "setting": "[1]", "value": "significant increase in fluorescence"},
      {"measurement": "Reporter fluorescence response compared to vehicle control", "setting": "[2]", "value": "significant increase in fluorescence"},
      {"measurement": "Tubular structure of treated organoids", "setting": "[2]", "value": "distinct loss of tubular structure"}
    ]},
    {"smiles": "C[C@@H]1C[C@H]2[C@@H]3CCC4=CC(=O)C=C[C@]4(C)[C@@]3(F)[C@@H](O)C[C@]2(C)[C@@]1(O)C(=O)CO", "note": "[Dexamethasone]", "values": [
      {"measurement": "Prediction of toxicity by increase in fluorescence intensity", "setting": "[1]; Flat 24h", "value": "N"},
      {"measurement": "Prediction of toxicity by increase in fluorescence intensity", "setting": "[1]; Flat 72h", "value": "N"},
      {"measurement": "Reporter fluorescence response compared to vehicle control", "setting": "[1]; [8]", "value": "none of the concentrations produced a signal statistically different"},
      {"measurement": "Prediction of toxicity by increase in fluorescence intensity", "setting": "[2]; 3D 24h", "value": "N"},
      {"measurement": "Prediction of toxicity by increase in fluorescence intensity", "setting": "[2]; 3D 72h", "value": "N"},
      {"measurement": "Prediction of toxicity, combination of 24 and 72 h (Boolean OR)", "setting": "[2]; 3D organoids", "value": "did not predict toxicity"},
      {"measurement": "Reporter fluorescence response compared to vehicle control", "setting": "[2]; [9]", "value": "none of the concentrations produced a signal statistically different"}
    ]},
    {"smiles": "CNC(C)C1CCC(N)C(OC2C(N)CC(N)C(OC3OCC(C)(O)C(NC)C3O)C2O)O1", "note": "(stereo not drawn) [Gentamicin]", "values": [
      {"measurement": "HMOX1 expression by immunostaining", "setting": "[3]; human", "value": "HMOX1 expression increased"},
      {"measurement": "Log2FC HMOX1", "setting": "[5]; 4 mg/mL vs control, 24 h", "value": "6.552 and 6.55"},
      {"measurement": "Expression of CLU in RNA-seq", "setting": "[5]; data not shown", "value": "not up-regulated"},
      {"measurement": "Expression of NGAL in RNA-seq", "setting": "[5]; data not shown", "value": "downregulated"},
      {"measurement": "Low concentration to which organoids responded (fluorescence)", "setting": "[1]; human, 24 h", "value": "2 4 μM"},
      {"measurement": "Prediction of toxicity by increase in fluorescence intensity", "setting": "[2]", "value": "Y"},
      {"measurement": "Tubular structure of treated organoids", "setting": "[2]", "value": "maintained their tubular structures"},
      {"measurement": "Low concentration to which organoids responded (fluorescence)", "setting": "[2]; human, 24 h", "value": 6, "unit": "µM"},
      {"measurement": "mCherry fluorescence intensity (fold-change relative to vehicle control)", "setting": "[6]", "value": "increased in a dose-dependent manner"}
    ]},
    {"smiles": "O=P1(NCCCl)OCCCN1CCCl", "note": "(stereo not drawn) [Ifosfamide]", "values": [
      {"measurement": "Prediction of toxicity by increase in fluorescence intensity", "setting": "[1]; Flat 24h", "value": "Y"},
      {"measurement": "Prediction of toxicity by increase in fluorescence intensity", "setting": "[1]; Flat 72h", "value": "Y"},
      {"measurement": "Reporter fluorescence response compared to vehicle control", "setting": "[1]; [8]", "value": "significant fluorescence increase"},
      {"measurement": "Prediction of toxicity by increase in fluorescence intensity", "setting": "[2]; 3D 24h", "value": "Y"},
      {"measurement": "Prediction of toxicity by increase in fluorescence intensity", "setting": "[2]; 3D 72h", "value": "Y"},
      {"measurement": "Reporter fluorescence response compared to vehicle control", "setting": "[2]; [9]", "value": "significant fluorescence increase"}
    ]},
    {"smiles": "CC(C(=O)O)c1cccc(C(=O)c2ccccc2)c1", "note": "(stereo not drawn) [Ketoprofen]", "values": [
      {"measurement": "Prediction of toxicity by increase in fluorescence intensity", "setting": "[1]; Flat 24h", "value": "Y"},
      {"measurement": "Prediction of toxicity by increase in fluorescence intensity", "setting": "[1]; Flat 72h", "value": "Y"},
      {"measurement": "Reporter fluorescence response compared to vehicle control", "setting": "[1]; [8]", "value": "significant response in the flat cultures at the two highest concentrations"},
      {"measurement": "Prediction of toxicity by increase in fluorescence intensity", "setting": "[2]; 3D 24h", "value": "N"},
      {"measurement": "Prediction of toxicity by increase in fluorescence intensity", "setting": "[2]; 3D 72h", "value": "N"},
      {"measurement": "Reporter fluorescence response compared to vehicle control", "setting": "[2]; 3D organoids, 72 h", "value": "only at the highest concentration after 72 h"}
    ]},
    {"smiles": "COc1ccc(C[C@H](N)C(=O)N[C@H]2[C@@H](O)[C@H](n3cnc4c(N(C)C)ncnc43)O[C@@H]2CO)cc1", "note": "[Puromycin]", "values": [
      {"measurement": "Reporter fluorescence response compared to vehicle control", "setting": "[1]; human", "value": "significant rise in fluorescence after both 24 and 72 h"},
      {"measurement": "Reporter fluorescence response compared to vehicle control", "setting": "[2]; human", "value": "significant rise in fluorescence after both 24 and 72 h"}
    ]},
    {"smiles": "OO", "note": "[hydrogen peroxide]", "values": [
      {"measurement": "HMOX1 transcripts by qPCR", "setting": "[7]", "value": "increase in HMOX1 transcripts"},
      {"measurement": "mCherry fluorescence", "setting": "[7]", "value": "increased in a dose-dependent manner"}
    ]}
  ]
}
